# Results published in patent publication US20250263400A1, “GCN2 MODULATOR COMPOUNDS” (Alesta Therapeutics BV, priority 2022, published 2025).
# Molecular target: GCN2 (Homo sapiens (Human), UniProt Q9P2K8)
# Experiment: GCN2 enzyme assay
# Assay type: biochemical
# Protocol: For GCN2 enzyme assays, testing compounds were prepared at proper concentrations in DMSO solution. IC50 values were calculated from a remaining activity using read conversion ratio.
# Sequence of GCN2 (Q9P2K8 whole entry, species assumed): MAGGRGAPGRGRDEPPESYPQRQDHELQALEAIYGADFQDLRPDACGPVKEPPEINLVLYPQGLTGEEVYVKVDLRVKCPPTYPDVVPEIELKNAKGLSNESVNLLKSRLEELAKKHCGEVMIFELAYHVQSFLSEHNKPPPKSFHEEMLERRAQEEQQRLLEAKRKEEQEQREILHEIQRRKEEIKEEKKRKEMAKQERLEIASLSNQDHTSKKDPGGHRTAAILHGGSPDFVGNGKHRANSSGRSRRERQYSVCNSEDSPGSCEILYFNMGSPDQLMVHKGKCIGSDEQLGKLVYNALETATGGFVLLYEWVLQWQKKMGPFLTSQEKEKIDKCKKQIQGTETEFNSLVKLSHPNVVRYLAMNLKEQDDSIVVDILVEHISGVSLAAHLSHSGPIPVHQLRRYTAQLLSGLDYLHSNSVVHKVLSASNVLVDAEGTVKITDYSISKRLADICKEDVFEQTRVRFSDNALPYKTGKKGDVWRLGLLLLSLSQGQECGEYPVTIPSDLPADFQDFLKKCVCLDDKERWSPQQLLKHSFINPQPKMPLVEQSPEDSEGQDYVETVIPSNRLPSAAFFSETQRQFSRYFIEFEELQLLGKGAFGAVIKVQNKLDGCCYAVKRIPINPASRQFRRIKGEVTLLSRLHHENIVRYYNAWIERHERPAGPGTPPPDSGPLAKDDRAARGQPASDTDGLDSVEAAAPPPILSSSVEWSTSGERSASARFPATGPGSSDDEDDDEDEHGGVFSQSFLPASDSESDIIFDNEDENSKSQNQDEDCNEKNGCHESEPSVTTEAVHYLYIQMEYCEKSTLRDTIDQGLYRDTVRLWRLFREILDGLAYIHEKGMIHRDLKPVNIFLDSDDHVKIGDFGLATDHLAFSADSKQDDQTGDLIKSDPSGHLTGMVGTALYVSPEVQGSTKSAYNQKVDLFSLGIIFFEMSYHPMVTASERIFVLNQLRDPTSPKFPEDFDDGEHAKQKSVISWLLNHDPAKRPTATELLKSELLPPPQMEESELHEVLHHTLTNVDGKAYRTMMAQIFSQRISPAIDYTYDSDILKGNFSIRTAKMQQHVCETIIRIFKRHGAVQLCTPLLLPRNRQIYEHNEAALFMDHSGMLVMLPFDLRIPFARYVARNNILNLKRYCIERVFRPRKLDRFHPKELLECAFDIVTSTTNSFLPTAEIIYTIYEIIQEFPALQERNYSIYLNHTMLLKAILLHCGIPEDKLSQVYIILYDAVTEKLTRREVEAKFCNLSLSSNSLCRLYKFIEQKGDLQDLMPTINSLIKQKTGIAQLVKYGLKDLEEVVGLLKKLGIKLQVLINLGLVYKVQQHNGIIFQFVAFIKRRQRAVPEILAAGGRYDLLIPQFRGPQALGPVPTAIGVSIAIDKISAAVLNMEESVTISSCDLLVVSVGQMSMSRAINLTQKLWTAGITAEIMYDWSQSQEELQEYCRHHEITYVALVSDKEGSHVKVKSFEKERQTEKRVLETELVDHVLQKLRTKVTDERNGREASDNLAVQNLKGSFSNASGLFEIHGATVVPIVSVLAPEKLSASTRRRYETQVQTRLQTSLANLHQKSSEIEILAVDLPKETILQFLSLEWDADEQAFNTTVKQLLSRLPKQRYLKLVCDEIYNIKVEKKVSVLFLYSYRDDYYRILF
row,IC50 [nM],Compound
1,3.39,"COc1ncc(Cl)cc1S(=O)(=O)Nc1ccc(F)c(-c2ccc3nc(N[C@@H]4CC[C@@H](C(N)=O)C4)ncc3c2)c1F [Compound 14, (1R,3R)-3-((6-(3-((5-chloro-2-methoxypyridine)-3-sulfonamido)-2,6-difluorophenyl)quinaz-zolin-2-yl)amino)cyclopent-ane-1-carboxamide 2,2,2-trifluoroacetate]"
2,4.18,"COCCNC(=O)[C@H]1C[C@H](Nc2ncc3cc(-c4c(F)ccc(NS(=O)(=O)c5cc(Cl)cnc5OC)c4F)ccc3n2)CN1 [Compound 15, (2R,4S)-4-((6-(3-((5-chloro-2-methoxypyridine)-3-sulfonamido)-2,6-difluorophenyl)quina-zolin-2-yl)amino)-N-(2-methoxyethyl)pyr-rolidine-2-carboxamide]"
3,11.7,"COc1ncc(Cl)cc1S(=O)(=O)Nc1ccc(Cl)c(-c2ccc3nc(N[C@@H]4CC[C@@H](C(N)=O)C4)ncc3c2)c1Cl [Compound 16, (1R,3R)-3-((6-(2,6-dichloro-3-((5-chloro-2-methoxypyridine)-3-sulfonamido)phenyl)quinazolin-2-yl)amino)cyclopent-ane-1-carboxamide]"
4,9.17,"COCCNC(=O)[C@H]1C[C@H](Nc2ncc3cc(-c4c(Cl)ccc(NS(=O)(=O)c5cc(Cl)cnc5OC)c4Cl)ccc3n2)CN1 [Compound 17, (2R,4S)-4-((6-(2,6-dichloro-3-((5-chloro-2-methoxypyridine)-3-sulfonamido)phenyl)quinazolin-2-yl)amino)-N-(2-methoxyethyl)pyr-rolidine-2-carboxamide]"
5,41.6,COCCNC(=O)N1CC[C@@H](Nc2ncc3cc(-c4c(Cl)ccc(NS(=O)(=O)c5cc(Cl)cnc5OC)c4Cl)ccc3n2)C1 [Compound 18]
6,10.2,"COCCNC(=O)[C@H]1CC[C@H](Nc2ncc3cc(-c4c(F)ccc(NS(=O)(=O)c5cc(Cl)cnc5OC)c4F)ccc3n2)CC1 [Compound 20, (1R,4R)-4-((6-(3-((5-chloro-2-methoxypyridine)-3-sulfonamido)-2,6-difluorophenyl)quina-zolin-2-yl)amino)-N-(2-methoxyethyl)cyclo-hexane-1-carboxamide]"
7,31.9,"COCCNC(=O)[C@H]1CC[C@H](Nc2ncc3cc(-c4c(Cl)ccc(NS(=O)(=O)c5cc(Cl)cnc5OC)c4Cl)ccc3n2)CC1 [Compound 21, (1R,4R)-4-((6-(2,6-dichloro-3-((5-chloro-2-methoxypyridine)-3-sulfonamido)phenyl)quinazolin-2-yl)amino)-N-(2-methoxyethyl)cyclo-hexane-1-carboxamide]"
8,6.66,"COc1ncc(Cl)cc1S(=O)(=O)Nc1ccc(F)c(-c2ccc3nc(NC4CCS(=O)(=O)C4)ncc3c2)c1F (stereo not shown) [Compound 23, 5-chloro-N-(3-(2-((1,1-dioxidotetrahydro-thiophen-3-yl)amino)quinazo-lin-6-yl)-2,4-difluorophenyl)-2-methoxypyridine-3-sulfonamide]"
9,25.3,"COc1ncc(Cl)cc1S(=O)(=O)Nc1ccc(Cl)c(-c2ccc3nc(NC4CCS(=O)(=O)C4)ncc3c2)c1Cl (stereo not shown) [Compound 27, 5-chloro-N-(2,4-dichloro-3-(2-((1,1-dioxidotetrahydro-thiophen-3-yl)amino)quinazo-lin-6-yl)phenyl)-2-methoxypyridine-3-sulfonamide]"
10,8.82,"CCc1cc(-c2c(Cl)cnc(NS(=O)(=O)c3cc(Cl)cc(CO)c3Cl)c2Cl)cc2cnc(N)nc12 [Compound 35, N-(4-(2-amino-8-ethylquinazolin-6-yl)-3,5-dichloropyridin-2-yl)-2,5-dichloro-3-(hydroxymethyl)ben-zenesulfonamide]"
11,7.32,"CCc1cc(-c2c(F)cnc(NS(=O)(=O)c3cc(Cl)cnc3OC)c2F)cc2cnc(N)nc12 [Compound 38, N-(4-(2-amino-8-ethylquinazolin-6-yl)-3,5-difluoropyridin-2-yl)-5-chloro-2-methoxypyridine-3-sulfonamide]"
12,8.33,"CCc1cc(-c2c(Cl)cnc(NS(=O)(=O)c3cc(Cl)cnc3OC)c2Cl)cc2cnc(N)nc12 [Compound 40, N-(4-(2-amino-8-ethylquinazolin-6-yl)-3,5-dichloropyridin-2-yl)-5-chloro-2-methoxypyridine-3-sulfonamide]"
13,88.3,"CCc1cc(-c2c(F)ccc(NS(=O)(=O)c3cc(Cl)cnc3OC)c2F)cc2cnc(N[C@H]3CC[C@H](NC)CC3)nc12 [Compound 45, 5-chloro-N-(3-(8-ethyl-2-(((1R,4R)-4-(methylamino)cyclo-hexyl)amino)quina-zolin-6-yl)-2,4-difluorophenyl)-2-methoxypyridine-3-sulfonamide]"
14,3.23,"CN[C@H]1CC[C@H](Nc2ncc3cc(-c4c(F)ccc(NS(=O)(=O)c5cc(Cl)cnc5OC)c4F)ccc3n2)CC1 [Compound 48, 5-chloro-N-(2,4-difluoro-3-(2-(((1R,4R)-4-(methylamino)cyclo-hexyl)amino)quina-zolin-6-yl)phenyl)-2-methoxypyridine-3-sulfonamide]"
15,5.13,"CCc1cc(-c2c(F)ccc(NS(=O)(=O)c3cc(Cl)cnc3OC)c2F)cc2cnc(N[C@H]3CC[C@H](N)CC3)nc12 [Compound 52, N-(3-(2-(((1R,4R)-4-aminocyclohexyl)amino)-8-ethylquinazolin-6-yl)-2,4-difluorophenyl)-5-chloro-2-methoxypyridine-3-sulfonamide]"
16,1.11,"CN(C)[C@H]1CC[C@H](Nc2ncc3cc(-c4c(F)ccc(NS(=O)(=O)c5cc(Cl)cc(CO)c5Cl)c4F)ccc3n2)CC1 [Compound 53, 2,5-dichloro-N-(3-(2-(((1R,4R)-4-(dimethylamino)cy-clohexyl)amino)quinazolin-6-yl)-2,4-difluorophenyl)-3-(hydroxymethyl)ben-zenesulfonamide]"
17,34.3,"CCc1cc(-c2c(F)ccc(NS(=O)(=O)c3cc(Cl)cnc3OC)c2F)cc2cnc(N[C@@H]3CC[C@@H](C(=O)NCCOC)C3)nc12 [Compound 54, (1R,3R)-3-((6-(3-((5-chloro-2-methoxypyridine)-3-sulfonamido)-2,6-difluorophenyl)-8-ethylquinazolin-2-yl)amino)-N-(2-methoxyethyl)cyclo-pentane-1-carboxamide]"
18,3.95,"CCc1cc(-c2c(F)ccc(NS(=O)(=O)c3cc(Cl)cnc3OC)c2F)cc2cnc(N[C@H]3CC[C@H](N(C)C)CC3)nc12 [Compound 57, 5-chloro-N-(3-(2-(((1R,4R)-4-(dimethylamino)cy-clohexyl)amino)-8-ethylquinazolin-6-yl)-2,4-difluorophenyl)-2-methoxypyridine-3-sulfonamide]"
19,2.35,"COc1ncc(Cl)cc1S(=O)(=O)Nc1ccc(F)c(-c2ccc3nc(N[C@H]4CC[C@H](N(C)C)CC4)ncc3c2)c1F [Compound 61, 5-chloro-N-(3-(2-(((1R,4R)-4-(dimethylamino)cy-clohexyl)amino)quinazolin-6-yl)-2,4-difluorophenyl)-2-methoxypyridine-3-sulfonamide]"
20,1.64,"COc1ncc(Cl)cc1S(=O)(=O)Nc1ccc(F)c(-c2ccc3nc(N[C@H]4CC[C@H](N)CC4)ncc3c2)c1F [Compound 62, N-(3-(2-(((1R,4R)-4-aminocyclohexyl)amino)quinazolin-6-yl)-2,4-difluorophenyl)-5-chloro-2-methoxypyridine-3-sulfonamide]"
21,26.8,"CCc1cc(-c2c(F)ccc(NS(=O)(=O)c3ccccc3Cl)c2F)cc2cnc(N[C@H]3CC[C@H](N(C)C)CC3)nc12 [Compound 64, 2-chloro-N-(3-(2-(((1R,4R)-4-(dimethylamino)cy-clohexyl)amino)-8-ethylquinazolin-6-yl)-2,4-difluorophenyl)ben-zenesulfonamide]"
22,43.7,"CCc1cc(-c2c(F)ccc(NS(=O)(=O)c3ccccc3Cl)c2F)cc2cnc(N[C@H]3CC[C@H](NC)CC3)nc12 [Compound 65, 2-chloro-N-(3-(8-ethyl-2-(((1R,4R)-4-(methylamino)cyclo-hexyl)amino)quina-zolin-6-yl)-2,4-difluorophenyl)ben-zenesulfonamide]"
23,63.2,"CN[C@H]1CC[C@H](Nc2ncc3cc(-c4c(F)ccc(NS(=O)(=O)c5ccccc5Cl)c4F)ccc3n2)CC1 [Compound 66, 2-chloro-N-(2,4-difluoro-3-(2-(((1R,4R)-4-(methylamino)cyclo-hexyl)amino)quina-zolin-6-yl)phenyl)benzene-sulfonamide]"
24,39.8,"CCc1cc(-c2c(F)ccc(NS(=O)(=O)c3ccccc3Cl)c2F)cc2cnc(N[C@H]3CC[C@H](N)CC3)nc12 [Compound 68, N-(3-(2-(((1R,4R)-4-aminocyclohexyl)amino)-8-ethylquinazolin-6-yl)-2,4-difluorophenyl)-2-chlorobenzenesulfon-amide]"
25,81.2,"CN(C)[C@H]1CC[C@H](Nc2ncc3cc(-c4c(F)ccc(NS(=O)(=O)c5ccccc5Cl)c4F)ccc3n2)CC1 [Compound 70, 2-chloro-N-(3-(2-(((1R,4R)-4-(dimethylamino)cy-clohexyl)amino)quinazolin-6-yl)-2,4-difluorophenyl)ben-zenesulfonamide]"
26,123,"N[C@H]1CC[C@H](Nc2ncc3cc(-c4c(F)ccc(NS(=O)(=O)c5ccccc5Cl)c4F)ccc3n2)CC1 [Compound 71, N-(3-(2-(((1R,4R)-4-aminocyclohexyl)amino)quinazolin-6-yl)-2,4-difluorophenyl)-2-chlorobenzenesulfon-amide 2,2,2-trifluoroacetate]"
27,19.4,"Nc1ncc2cc(-c3c(Cl)cnc(NS(=O)(=O)c4ccccc4Cl)c3Cl)ccc2n1 [Compound 73, N-(4-(2-aminoquinazolin-6-yl)-3,5-dichloropyridin-2-yl)-2-chlorobenzenesulfon-amide]"
28,367,"Nc1ncc2cc(-c3c(F)cnc(NS(=O)(=O)c4ccccc4Cl)c3F)ccc2n1 [Compound 75, N-(4-(2-aminoquinazolin-6-yl)-3,5-difluoropyridin-2-yl)-2-chlorobenzenesulfon-amide]"
